Structures can show the parent of a compound that is named as a salt.
Tests used:
[1] = test system: late passage prostate epithelial cells; assay: Proliferation of late passage prostate epithelial cells in KSFM plus compounds, 5 days; type: cell-based, human; conditions: for total cell number after 5 days: KSFM plus individual compound alone, 1 μM and 0.2 μM (FIG. 16)
Experimental: Stocks of certain chemicals used in the study were prepared by dissolving in DMSO to 10 mM. The chemical stocks were added to culture media to desired final concentrations, as described in Examples 2 to 5 and shown in FIGS. 1 to 17, from the time when cell culture was initiated.
In a control experiment with no added compound, there was minimum increase of cell numbers after 5 days.
In control experiment with no inhibitor added to KSFM, there was minimum increase of cell numbers after 5 days. […] As described above, these include Rho kinase inhibitors (i.e., Rho-associated protein kinase inhibitors) such as Y-27632, SR 3677, GSK 429286 and Thiazovivin; PAK1 inhibitor IPA-3; and myosin II inhibitor (i.e., non-muscle myosin II (NM II) inhibitor) Blebbistatin.

keratinocytes = assay: Expansion of keratinocytes in KSFM supplemented with combinations of components; type: cell-based, human; conditions: for cell growth rate: KSFM with EGF, isoproterenol, A 83-01 and rHA
Experimental: In another experiment, keratinocytes were cultured in KSFM supplemented with various combinations of components.
In another experiment, keratinocytes were cultured in the presence of increasing doses of ROCK inhibitor (Y-27632) or Myosin II ATPase inhibitor (blebbistatin), in KSFM supplemented with EGF (0.5 ng/mL), isoproterenol (3 μM), A 83-01 (1 μM), and recombinant human serum albumin (expressed in rice; 100 μg/mL).
In another experiment, keratinocytes were cultured in the presence of increasing doses (between 10 nM to 2 μM) of retinoic acid receptors (RAR) antagonist BMS-453 or retinoic acid receptors (RAR) antagonist BMS-195614, in KSFM supplemented with EGF (0.5 ng/mL), isoproterenol (3 μM), A 83-01 (1 μM), and recombinant human serum albumin (expressed in rice; 100 μg/mL).

[2] = test system: prostate epithelial cells; assay: Growth (population doublings) of prostate epithelial cells in culture; type: cell-based, human; conditions: added to KSFM
Experimental: (§1) Epithelial cells (prostate epithelial cells and bronchial epithelial cells) were plated at 3,000-10,000 viable cells/cm^2 in tissue culture vessels, using culture medium as indicated in Examples 2 to 5 and FIGS. 1 to 17, and incubated at 37° C. with 5% CO2. The medium was changed every 2 or 3 days. Cells were sub-cultured using standard trypsinization method when they were about 70-90% confluent. Total cell number was determined using the Countess II Automated Cell Counter (Life Technologies, AMQAX1000) following manufacturer's instructions.
(§2) A formula used for the calculation of population doublings (PD) is presented in Equation A: n=3.32*(log Y−log I)+X Equation A where n=the final PD number at end of a given subculture, Y=the cell yield at the time of harvesting, I=the cell number used as inoculum to begin that subculture, and X=the doubling level of the inoculum used to initiate the subculture being quantitated.
(§3) Prostate and bronchial epithelial cells were grown in KSFM in the presence of Rho kinase inhibitor (i.e., Rho-associated protein kinase inhibitor) Y-27632.
To examine the effects of additional in vitro and/or ex vivo growth conditions, prostate epithelial cells were grown in KSFM or PrEGM in the presence of media alone, ALK5 inhibitor A83-01, Rho kinase inhibitor (i.e., Rho-associated protein kinase inhibitor) Y-27632, or both (with or without collagen).

[3] = test system: human telomerase reverse transcriptase (hTERT) gene; assay: hTERT expression by quantitative real-time PCR in prostate epithelial cells; type: cell-based; conditions: KSFM
Experimental: (§4) Total RNA was prepared using TRIzol® Plus RNA Purification Kit (Life Technologies, 12183-555) and PureLink® RNA Mini Kit (Life Technologies, 12183018A), following the manufacturer's instructions. One hundred nanogram total RNA was used for the determination of human telomerase reverse transcriptase (hTERT) expression using the TaqMan® RNA-to-CT™ 1-Step Kit (Life Technologies, 4392938), following the protocol provided by the supplier. hTERT primers and Taqman® probe used were as follows: forward primer, 5′-[…]-3′ (SEQ ID NO:7), reverse primer, 5′-[…]-3′ (SEQ ID NO:8) and Taqman® probe, 5′-[…]-3′ (SEQ ID NO:9).
(§5) In this example, hTERT expression in epithelial cells was assessed in the presence of an ALK5 inhibitor, a Rho kinase inhibitor (i.e., a Rho-associated protein kinase inhibitor), or both. Expression of hTERT gene was examined by quantitative real-time PCR in bronchial epithelial cells and prostate epithelial cells. The cells were treated with an ALK5 inhibitor, A83-01, or a Rho kinase inhibitor (i.e., a Rho-associated protein kinase inhibitor), Y-27632, or both inhibitors, at different passages in KSFM.
As shown in FIG. 6A and FIG. 6B, prostate epithelial cells at early passage (p2) expressed low level of hTERT, which quickly diminished at passage 3 and became non-detectible by passage 5.

[4] = test system: bronchial epithelial cells; assay: Growth (population doublings) of bronchial epithelial cells in culture; type: cell-based, human; conditions: added to KSFM
Experimental: as §1, §2, §3
Similar to the experiment above, bronchial epithelial cells were grown in KSFM in the presence of media alone, ALK5 inhibitor A83-01, Rho kinase inhibitor (i.e., Rho-associated protein kinase inhibitor) Y-27632, or both (with or without collagen).

[5] = test system: human telomerase reverse transcriptase (hTERT) gene; assay: hTERT expression by quantitative real-time PCR in bronchial epithelial cells; type: cell-based; conditions: KSFM
Experimental: as §4, §5

[6] = used together with A83-01 in KSFM, 5 μM, 1 μM and 0.2 μM (FIG. 17)
[7] = increasing doses (between 10 nM to 2 μM)

Row | Compound | total cell number after 5 days ([1]; 5 μM) | cell proliferation after 5 days [1, 6] | further results
1 | CN(C)CCOc1cc(-c2cn[nH]c2)ccc1NC(=O)C1COc2ccccc2O1 (stereo not shown) [SR 3677, N-[2-[2-(Dimethylamino)ethoxy]-4-(1H-pyrazol-4-yl)phenyl-2,3-dihydro-1,4-benzodioxin-2-carboxamidedihydrochloride] | slight increase of total cell numbers | synergistically increased | 
2 | NC(=O)c1ccc(-c2nc(-c3ccc4c(c3)OCO4)c(-c3ccccn3)[nH]2)cc1 [SB 431542, 4-[4-(1,3-benzodioxol-5-yl)-5-(2-pyridinyl)-1H-imidazol-2-yl]benzamide] | pronounced increase of total cell number | little extra increase | 
3 | O=C(NC1CCOCC1)c1ccc(-c2cc(-c3c[nH]nc3-c3ccccn3)ccn2)cc1 [GW 788388, 4-[4-[3-(2-Pyridinyl)-1H-pyrazol-4-yl]-2-pyridinyl]-N-(tetrahydro-2H-pyran-4-yl)-benzamide] | pronounced increase of total cell number | little extra increase | 
4 | Oc1ccc2ccccc2c1SSc1c(O)ccc2ccccc12 [IPA-3, 1,1′-Dithiodi-2-naphthtol] | did not increase proliferation | synergistically increased | 
5 | CC1(C)CC=C(c2ccccc2)c2cc(/C=C/c3ccc(C(=O)O)cc3)ccc21 [BMS-453] |  |  | proliferation of keratinocytes (keratinocytes; 100 nM, with A83-01, EGF, isoproterenol and rHA): further increased the proliferation of keratinocytes; cell growth rate (keratinocytes; [7]): further enhance cell growth rate at sub-micromolar doses
6 | O=C(NCc1ccccc1)c1csc(Nc2ccncn2)n1 [Thiazovivin, N-Benzyl-[2-(pyrimidin-4-yl)amino]thiazole-4-carboxamide] | slight increase of total cell numbers | synergistically increased | 
7 | Cc1cccc(-c2nn(C(=S)Nc3ccccc3)cc2-c2ccnc3ccccc23)n1 [A83-01, 3-(6-Methyl-2-pyridinyl)-N-phenyl-4-(4-quinolinyl)-1H-pyrazole-1-carbothioamide] | pronounced increase of total cell number |  | cell proliferation after 5 days ([1]; KSFM plus compound alone (FIG. 17)): significantly increased; total population doublings [2]: also increased the total population doublings; hTERT expression ([3]; early passage (p2)): quickly induced; hTERT expression ([3]; late passage (p5)): sustained measurable hTERT expression; total population doublings [4]: also increased the total population doublings; hTERT expression ([5]; early passage (p3)): robustly induced; hTERT expression ([5]; late passage (p6)): sustained measurable hTERT expression
8 | CC1=C(C(=O)Nc2cc3cn[nH]c3cc2F)C(c2ccc(C(F)(F)F)cc2)CC(=O)N1 (stereo not shown) [GSK 429286, 4-[4-(Trifluoromethyl)phenyl]-N-(6-Fluoro-1H-indazol-5-yl)-2-methyl-6-oxo-1,4,5,6-tetrahydro-3-pyridinecarboxamide] | slight increase of total cell numbers | synergistically increased | 
9 | Cc1ccc2c(c1)C(=O)C1(O)CCN(c3ccccc3)C1=N2 (racemic) [Blebbistatin, (±)-1,2,3,3a-Tetrahydro-3a-hydroxy-6-methyl-1-phenyl-4H-pyrrolo[2,3-b]quinolin-4-one] | did not increase proliferation | synergistically increased | cell growth rate (keratinocytes; increasing doses): No significant increase of cell growth rate
10 | CC1(C)CC=C(c2cnc3ccccc3c2)c2cc(C(=O)Nc3ccc(C(=O)O)cc3)ccc21 [BMS-195614] |  |  | cell growth rate (keratinocytes; [7]): further enhance cell growth rate at sub-micromolar doses
11 | Cc1cccc(-c2n[nH]cc2-c2ccc3ncccc3n2)n1 [RepSox, 2-(3-(6-Methylpyridine-2-yl)-1H-pyrazol-4-yl)-1,5-naphthyridine] | pronounced increase of total cell number | little extra increase | 

Reference: patent US11060715B2, “Ex vivo proliferation of epithelial cells” (PROPAGENIX INC., priority 2015, dated 2021)
